Measured values: patent publication US20220202739A1, “ENDOCANNABINOID MIMETIC AND ANTI-INFLAMMATORY COMPOUND CONTAINING COMPOSITIONS, METHODS OF PREPARATION AND USES THEREOF” (priority 2019, published 2022)
Like-named read-outs stand apart in the source and are kept apart here.

How the values were obtained:
Type in all cases: cell-based
PPARG = experiment: Gene expression custom microarray, human skin fibroblasts (Example 1): PPARG; conditions: for fold induction at 10 µM: Skin fibroblast, read-out: PPARG↑ gene expression, fold increase or decrease vs untreated cells
Description: (§1) Cell cultures: A human skin fibroblast cell culture (or cultures) was obtained through the Coriell Cell Repository from the National Institute on Aging Cell Repository (Camden, N.J.), or Promocell GmbH (Heidelberg, Germany). The initial culture was selected from the following cell lines: AG13066, AG11557, AG11796 or GM03651E. The cell lines were derived from donors as follows:
(§2) Experimental phase: When the appropriate quantity of cells had been grown, they were detached as described above, but at the final step were seeded into each well of one or more 6 well dishes. Each well received 2 ml of the cell suspension so they were seeded equally. The dishes were returned to the incubator until 85-95% confluency was reached.
(§3) It is at this stage that all wells were rinsed in PBS after aspirating the growth media. The compound(s) to be tested were previously mixed into a suitable solvent (e.g., DMSO or ethanol) that can be diluted to the desired concentration of test compound (10 μl) in the culture wells without exceeding maximum solvent concentrations and adversely effecting cell viability, and mixed with basal media. NOTE: Standard maximum levels of solvent are 0.1% for DMSO and 0.5% for ETOH.
(§4) Every 2 wells on the 6 well plate served as a biological replicate for the purposes of RNA isolation and genetic expression evaluations making each 6 well dish an n=3 for the test compound(s) contained in the media. Negative control plates (no test compound(s) and only basal media) were also generated. The plates were returned to the incubator for 24 hrs.
(§5) At the end of the 24 hr time period, the plates were removed from the incubator, the test media aspirated, and the cells rinsed with PBS. RNA isolation is performed using the BioRad Aurum Total RNA Mini Kit (Hercules, Calif.) per manufacturer's protocol; which is described, in brief, below: • Add 350 μl of lysis buffer to each well. Pipet multiple times to ensure thorough lysis. Add lysed cells to the collection tube. • Add 350 μl of 70% ETOH to the collection tube and mix thoroughly. • Pipet the generated lysate onto the spin column placed in a new 2 ml tube. Centrifuge for 30 sec between 8,000 and 10,000 g. • Place the spin column containing the now bound RNA, in a new 2 ml tube. Add 700 μl of low stringency wash solution to the spin column. Centrifuge for 30 sec between 8,000 and 10,000 g. Discard the flow through and replace spin column. • Add 80 μl of DNase I dilution to the spin column and incubate at room temperature for 15 minutes. • Add 700 μl of high stringency wash solution to the column and centrifuge for 30 sec between 8,000 and 10,000 g. Discard flow through. • Add 700 μl of low stringency wash solution to the column and centrifuge for 60 sec between 8,000 and 10,000 g. Discard flow through. • Centrifuge for 2 minutes to remove residual wash solution. • Transfer spin column to new 1.5 ml collection tube and add 80 μl of elution solution to the column. Allow 1 minute for saturation of the membrane and then centrifuge for 2 minutes to complete the RNA elution. • Quantify the quantity of RNA and store at −20 C° until use (no more than 1 month)
(§6) The genes tested were: • Cannabinoid receptor 1 (CB1(CNR1)) • Cannabinoid receptor 2 (CB2 (CNR2)) • Fatty acid amide hydrolase (FAAH) • Monoacylglycerol lipase (MGLL, i.e., MAGL) • Peroxisome proliferator-activated receptor gamma (PPARG) • Nuclear factor kappa-light-chain-enhancer of activated B cells (NFκβ) • Interleukin 1 Alpha (IL1alpha) • Cyclooxygenase 1 (PTGS1, i.e., COX1) • Transient receptor potential cation channel subfamily A member 1 (TRPA1) • Transient receptor potential cation channel subfamily V member 1 (TRPV1) • Transient receptor potential cation channel subfamily M member 8 (TRPM8) • Hemoglobin Subunit Beta (HBB) REFERENCE GENE • Ribosomal Protein L13a (RPL13A) REFERENCE GENE

MAGL = experiment: Gene expression custom microarray, human skin fibroblasts (Example 1): MAGL; conditions: for fold induction at 10 µM: Skin fibroblast, read-out: MAGL↓ gene expression, fold increase or decrease vs untreated cells
Description: as §1, §2
as §3, with “ETOH. The concentration of each test compound is found in Tables 1 & 2.” for “ETOH.”
as §4, §5
(§7) The genes tested were: • Cannabinoid receptor 1 (CB1(CNR1)) • Cannabinoid receptor 2 (CB2 (CNR2)) • Fatty acid amide hydrolase (FAAH) • Monoacylglycerol lipase (MGLL, i.e., MAGL) • Peroxisome proliferator-activated receptor gamma (PPARG) • Nuclear factor kappa-light-chain-enhancer of activated B cells (NFκβ) • Interleukin 1 Alpha (IL1alpha) • Cyclooxygenase 1 (PTGS1, i.e., COX1) • Transient receptor potential cation channel subfamily A member 1 (TRPA1) • Transient receptor potential cation channel subfamily V member 1 (TRPV1) • Transient receptor potential cation channel subfamily M member 8 (TRPM8) • Hemoglobin Subunit Beta (HBB) REFERENCE GENE • Ribosomal Protein L13a (RPL13A) REFERENCE GENE […]

PTGS1 = experiment: Gene expression custom microarray, human skin fibroblasts (Example 1): PTGS1; conditions: for fold induction at 10 µM: Skin fibroblast, read-out: PTGS1↓ gene expression, fold increase or decrease vs untreated cells
Description: as §1, §2
as §3, with “ETOH. The concentration of each test compound is found in Tables 1 & 2.” for “ETOH.”
as §4, §5, §7

NFKB1 = experiment: Gene expression custom microarray, human skin fibroblasts (Example 1): NFKB1; conditions: for fold induction at 10 µM: Skin fibroblast, read-out: NFKB1↓ gene expression, fold increase or decrease vs untreated cells
Description: as §1, §2, §3, §4, §5, §6

FAAH = experiment: Gene expression custom microarray, human skin fibroblasts (Example 1): FAAH; conditions: for fold induction at 10 µM: Skin fibroblast, read-out: FAAH↓ gene expression, fold increase or decrease vs untreated cells
Description: as §1, §2
as §3, with “ETOH. The concentration of each test compound is found in Tables 1 & 2.” for “ETOH.”
as §4, §5, §7

CNR1 = experiment: Gene expression custom microarray, human skin fibroblasts (Example 1): CNR1; conditions: for fold induction at 10 µM: Skin fibroblast, read-out: CNR1↑ gene expression, fold increase or decrease vs untreated cells
Description: as §1, §2
as §3, with “ETOH. The concentration of each test compound is found in Tables 1 & 2.” for “ETOH.”
as §4, §5, §7

CNR2 = experiment: Gene expression custom microarray, human skin fibroblasts (Example 1): CNR2; conditions: human skin fibroblasts, 10 uM, 24 hr; for fold induction at 10 µM: Skin fibroblast, read-out: CNR2↑ gene expression, fold increase or decrease vs untreated cells
Description: as §1, §2
as §3, with “ETOH. The concentration of each test compound is found in Tables 1 & 2.” for “ETOH.”
as §4, §5, §7

TRPA1 = experiment: Gene expression custom microarray, human skin fibroblasts (Example 1): TRPA1; conditions: for fold induction at 10 µM: Skin fibroblast, read-out: TRPA1↑ gene expression, fold increase or decrease vs untreated cells
Description: as §1, §2
as §3, with “ETOH. The concentration of each test compound is found in Tables 1 & 2.” for “ETOH.”
as §4, §5, §7

TRPV1 = experiment: Gene expression custom microarray, human skin fibroblasts (Example 1): TRPV1; conditions: 10 uM, 24 hr
Description: as §1, §2
as §3, with “ETOH. The concentration of each test compound is found in Tables 1 & 2.” for “ETOH.”
as §4
At the end of the 24 hr time period, the plates were removed from the incubator, the test media aspirated, and the cells rinsed with PBS. RNA isolation is performed using the BioRad Aurum Total RNA Mini Kit (Hercules, Calif.) per manufacturer's protocol; which is described, in brief, below: • Add 350 μl of lysis buffer to each well. Pipet multiple times to ensure thorough lysis. Add lysed cells to the collection tube. • Add 350 μl of 70% ETOH to the collection tube and mix thoroughly. • Pipet the generated lysate onto the spin column placed in a new 2 ml tube. Centrifuge for 30 sec between 8,000 and 10,000 g. • Place the spin column containing the now bound RNA, in a new 2 ml tube. Add 700 μl of low stringency wash solution to the spin column. Centrifuge for 30 sec between 8,000 and 10,000 g. […] Allow 1 minute for saturation of the membrane and then centrifuge for 2 minutes to complete the RNA elution. • Quantify the quantity of RNA and store at −20 C° until use (no more than 1 month) […]

IL1A = experiment: Gene expression custom microarray, human skin fibroblasts (Example 1): IL1A; conditions: 24 hr; for IL1A↓ gene expression, fold increase or decrease vs untreated cells: 10 uM; for fold induction at 10 µM: Skin fibroblast, read-out: IL1A↓ gene expression, fold increase or decrease vs untreated cells
Description: as §1, §2
as §3, with “ETOH. The concentration of each test compound is found in Tables 1 & 2.” for “ETOH.”
as §4, §5, §7

TRPM8 = experiment: Gene expression custom microarray, human skin fibroblasts (Example 1): TRPM8; conditions: 24 hr; for TRPM8↑ gene expression, fold increase or decrease vs untreated cells: 10 uM; for fold induction at 10 µM: Skin fibroblast, read-out: TRPM8↑ gene expression, fold increase or decrease vs untreated cells
Description: as §1, §2
as §3, with “ETOH. The concentration of each test compound is found in Tables 1 & 2.” for “ETOH.”
as §4, §5, §7

[1] = human skin fibroblasts, 10 uM, 24 hr

Row | SMILES | CNR1↑ gene expression, fold increase or decrease vs untreated cells (CNR1; [1]) [fold] | CNR2↑ gene expression, fold increase or decrease vs untreated cells (CNR2) [fold] | PPARG↑ gene expression, fold increase or decrease vs untreated cells (PPARG; [1]) [fold] | TRPA1↑ gene expression, fold increase or decrease vs untreated cells (TRPA1; [1]) [fold] | MAGL↓ gene expression, fold increase or decrease vs untreated cells (MAGL; [1]) [fold] | PTGS1↓ gene expression, fold increase or decrease vs untreated cells (PTGS1; [1]) [fold] | NFKB1↓ gene expression, fold increase or decrease vs untreated cells (NFKB1; [1]) [fold] | FAAH↓ gene expression, fold increase or decrease vs untreated cells (FAAH; [1]) [fold] | TRPV1↑ gene expression, fold increase or decrease vs untreated cells (TRPV1) [fold] | IL1A↓ gene expression, fold increase or decrease vs untreated cells (IL1A) [fold] | TRPM8↑ gene expression, fold increase or decrease vs untreated cells (TRPM8) [fold] | fold induction at 10 µM (CNR2) | fold induction at 10 µM (TRPA1; [1]) | fold induction at 10 µM (NFKB1; [1]) | fold induction at 10 µM (FAAH; [1]) | fold induction at 10 µM (IL1A) | fold induction at 10 µM (TRPM8) | fold induction at 10 µM (PPARG; [1]) | fold induction at 10 µM (PTGS1; [1]) | fold induction at 10 µM (MAGL; [1]) | further results
1 | O=c1cc(-c2ccccc2)oc2cc(O)ccc12 [7-Hydroxyflavone] |  |  |  |  |  |  |  |  |  |  |  |  |  |  |  |  |  |  |  |  | fold induction at 10 µM (PPARG; Homo sapiens, 24 h): 1.4; fold induction at 10 µM (MAGL; Homo sapiens, 24 h): 2; fold induction at 10 µM (PTGS1; Homo sapiens, 24 h): 1.4; fold induction at 10 µM (NFKB1; Homo sapiens, 24 h): 1.1; fold induction at 10 µM (FAAH; Homo sapiens, 24 h): 1.2
2 | C=C1CC/C=C(\C)CC[C@@H]2[C@@H]1CC2(C)C [B-Caryphyllene, B-Caryophyllene] | 0 | 0 | −1.6 | 0 | 1 | −1.5 | −1.3 | −1.6 | 2 | 0 | 5.5 |  |  |  |  |  |  |  |  |  | 
3 | COc1cc(/C=C/C(=O)CC(=O)/C=C/c2ccc(O)c(OC)c2)ccc1O [Curcumin] |  |  |  |  |  |  |  |  |  |  |  | 55.4 | 4.9 | 1.1 | 1.8 | 4.9 | 47.9 |  |  |  | fold induction at 10 µM (CNR1; [1]): 47.4
4 | C=CCc1ccc(O)c(OC)c1 [Eugenol] |  |  |  |  |  |  |  |  |  |  |  | 109 | 30.1 |  | 3 | 39.2 | 152 | 1.6 |  |  | fold induction at 10 µM (CNR1; [1]): 148
5 | C[C@@H]1C(=O)O[C@H]2[C@H](O)[C@@]34[C@H]5C[C@@H](C(C)(C)C)[C@]36[C@@H](OC(=O)[C@@H]6O)O[C@@]4(C(=O)O5)[C@@]12O [Ginkolide, Ginkolide B] | 1.1 | −1.2 | −1.3 | 1.1 | 2.3 | −1.3 | −1.2 | −1.1 | −2.6 | −3.3 | 2.1 |  |  |  |  |  |  |  |  |  | 
6 | CC(C)=CCC[C@](C)(O[C@@H]1O[C@H](CO[C@@H]2O[C@@H](CO)[C@H](O)[C@H]2O)[C@@H](O)[C@H](O)[C@H]1O)[C@H]1CC[C@]2(C)[C@@H]1[C@H](O)C[C@@H]1[C@@]3(C)CC[C@H](O[C@@H]4O[C@H](CO)[C@@H](O)[C@H](O)[C@H]4O[C@@H]4O[C@H](CO)[C@@H](O)[C@H](O)[C@H]4O)C(C)(C)[C@@H]3CC[C@]12C [Ginsenoside, ginsenoside RC] |  |  |  |  |  |  |  |  |  |  |  |  |  | 1.8 |  |  |  |  | 7.9 |  | fold induction at 10 µM (TRPA1; Homo sapiens, 24 h): 1.5
7 | C=CCc1ccc(O)c(-c2ccc(O)c(CC=C)c2)c1 [Honokiol] |  |  |  |  |  |  |  |  |  |  |  | 1.3 | 1.4 | 1.6 | 2.3 | 1.8 | 1.8 | 2.3 | 1.5 | 2.7 | fold induction at 10 µM (CNR1; Homo sapiens, 24 h): 1.2
8 | CC1CCC(C(C)C)C(O)C1 (stereo not shown) [Menthol, reference compound] |  |  |  |  |  |  |  |  |  |  |  |  | 2.5 | 3.4 | 2 |  |  | 1.8 | 7.8 | 2.7 | 
9 | COC(=O)c1ccccc1O [Methyl Salicylate, reference compound] |  |  |  |  |  |  |  |  |  |  |  |  | 3 | 1.9 |  |  |  | 1.8 | 1.4 | 2.4 | 
10 | CCCCCCCC/C=C\CCCCCCCC(=O)NCCO [N-Oleylethanolamide] | −1.9 | −2.4 | 2.4 | 1.1 | 2.5 | 1.5 | 1.5 | −1.1 | −1.6 | −1.9 | −1.4 |  |  |  |  |  |  |  |  |  | 
